The text below walks through data of patent US6545009B1, “Retinoid-related receptor function regulating agent” (Takeda Chemical Industries, Ltd., priority 1998, dated 2003).

SMILES strings stand for the structures.

In turn, `Cc1ccc(-c2csc(-c3ccc(C(=O)O)cc3)n2)cc1` [Example 56, 4-[4-(4-methylphenyl)-2-thiazolyl]benzoic acid] gave a melting point of 289 to 290 °C.

With `COC(=O)c1ccc(-c2nc(-c3ccc(Br)cc3)cs2)cc1` [Example 75, methyl 4-[4-(4-bromophenyl)-2-thiazolyl]benzoate], the melting point is 206 to 207 °C.

In the case of `O=C(O)c1ccc(-c2nc(-c3ccccc3C(F)(F)F)co2)cc1` [Example 15, 4-[4-(2-trifluoromethylphenyl)-2-oxazolyl]benzoic acid], the melting point was 264 to 265 °C.

As to `CCOC(=O)c1cccc(-c2nc(-c3cc(C)sc3C)cs2)c1` [Example 78, ethyl 3-[4-(2,5-dimethyl-3-thienyl)-2-thiazolyl]benzoate], the melting point lay within 115 to 116 °C.

`COC(=O)c1cccc(-c2nc(-c3cccc(C(F)(F)F)c3)cs2)c1` [Example 45, methyl 3-[4-(3-trifluoromethylphenyl)-2-thiazolyl]benzoate]: the melting point lay in the range of 105 to 106 °C.

In turn, `O=C(O)c1ccc(-c2coc(-c3ccccc3)n2)cc1` [Example 12, 4-(2-phenyl-4-oxazolyl]benzoic acid] came in with a melting point of 271 to 273 °C.

`O=C(O)c1cccc(-c2nc(-c3cccc(C(F)(F)F)c3)cs2)c1` [Example 68, 3-[4-(3-trifluoromethylphenyl)-2-thiazolyl]benzoic acid] showed a melting point of 229 to 230 °C.

In turn, `O=C(O)c1ccc(-c2nc(-c3cc(C(F)(F)F)cc(C(F)(F)F)c3)co2)cc1` [Example 23, 4-[4-[3,5-bis(trifluoromethyl)phenyl)-2-oxazolyl]benzoic acid] displayed a melting point of 277 to 279 °C.

In turn, `CCOC(=O)c1ccc(-c2coc(-c3ccc(Cl)cc3)n2)cc1` [Example 6, ethyl 4-[2-(4-chlorophenyl)-4-oxazolyl)benzoate] returned a melting point of 153 to 154 °C.

In the case of `O=C(O)c1ccc(-c2csc(-c3ccncc3)n2)cc1` [Example 59, 4-[2-(4-pyridyl)-4-thiazolyl]benzoic acid], the melting point was more than 300 °C.

In turn, `COC(=O)c1ccc(-c2nc(-c3ccc(Cl)s3)co2)cc1` [Example 7, methyl 4-[4-(5-chloro-2-thienyl)-2-oxazolyl]benzoate] registered a melting point of 189 to 190 °C.

Take `O=C(O)c1ccc(-c2nc(-c3cccc(OC(F)(F)F)c3)cs2)cc1` [Example 63, 4-[4-(3-trifluoromethoxylphenyl)-2-thiazolyl]benzoic acid]: the melting point lay in the range of 233 to 234 °C.

`COC(=O)c1cccc(-c2nc(-c3ccc(C(F)(F)F)cc3)co2)c1` [Example 21, methyl 3-[4-(4-trifluoromethylphenyl)-2-oxazolyl]benzoate] returned a melting point of 151 to 152 °C.

On to `COC(=O)c1ccc(-c2nc(-c3cccc(C(F)(F)F)c3)co2)cc1` [Example 16, methyl 4-[4-(3-trifluoromethylphenyl)-2-oxazolyl]benzoate], for which the melting point fell in the range of 134 to 135 °C.

In turn, `COC(=O)c1ccc(-c2nc(-c3ccccc3)co2)cc1` [Example 4, methyl 4-(4-phenyl-2-oxazolyl)benzoate] registered a melting point of 175 to 176 °C.

`O=C(O)c1ccc(-c2ncc(-c3ccc(Cl)cc3)s2)cc1` [Example 114, 4-[5-(4-chlorophenyl)-2-thiazolyl]benzoic acid]: the melting point was more than 300 °C.

Take `O=C(O)c1ccc(-c2cnc(-c3ccc(Cl)cc3)o2)cc1` [compound 13, 4-[2-(4-chlorophenyl)-5-oxazolyl]benzoic acid]: the melting point was in the range of 268 to 270 °C.

For `COC(=O)c1ccc(-c2nc(-c3ccc(C(C)C)cc3)cs2)cc1` [Example 87, methyl 4-[4-(4-isopropylphenyl)-2-thiazolyl]benzoate], the melting point is 134 to 135 °C.

`Br.COC(=O)c1ccc(-c2nc(-c3ccccn3)cs2)cc1` [Example 38, methyl 4-[4-(2-pyridyl)-2-thiazolyl]benzoate hydrobromide] returned a melting point of 243 to 244 °C.

For `COc1ccc(-c2csc(-c3cccc(C(=O)O)c3)n2)cc1` [Example 70, 3-[4-(4-methoxyphenyl)-2-thiazolyl]benzoic acid], the melting point is 236 to 238 °C.

In the case of `CCOC(=O)c1ccc(-c2ncc(-c3ccc(Cl)cc3)o2)cc1` [Example 108, ethyl 4-[5-(4-chlorophenyl)-2-oxazolyl]benzoate], the melting point was in the range of 195 to 197 °C.

The compound `O=C(O)c1ccc(-c2coc(-c3ccc(Cl)cc3)n2)cc1` [Example 13, 4-[2-(4-chlorophenyl)-4-oxazolyl]benzoic acid] showed a melting point of 288 to 289 °C.

Regarding `O=C(O)c1ccc(-c2nc(-c3ccc(OC(F)F)cc3)co2)cc1` [Example 24, 4-[4-(4-difluoromethoxylphenyl)-2-oxazolyl]benzoic acid], the melting point was 261 to 262 °C.

Turning to `COC(=O)c1cccc(-c2nc(-c3ccc(OC)cc3)cs2)c1` [Example 47, methyl 3-[4-(4-methoxyphenyl)-2-thiazolyl]benzoate], the melting point was in the range of 108 to 109 °C.

As to `COC(=O)c1ccc(-c2nc(-c3cc(Cl)sc3Cl)cs2)cc1` [Example 80, methyl 4-[4-(2,5-dichloro-3-thienyl)-2-thiazolyl]benzoate], the melting point fell in the range of 149 to 150 °C.

On to `COC(=O)c1ccc(-c2nc(-c3cccc(Cl)c3)cs2)cc1` [Example 43, methyl 4-[4-(3-chlorophenyl)-2-thiazolyl]benzoate], for which the melting point fell in the range of 150 to 151 °C.

With `O=C(O)c1ccc(-c2nc(-c3cc(Cl)sc3Cl)cs2)cc1` [Example 94, 4-[4-(2,5-dichloro-3-thienyl)-2-thiazolyl]benzoic acid], the melting point fell in the range of 266 to 267 °C.

The compound `O=C(O)c1ccc(-c2coc(-c3ccc(C(F)(F)F)cc3)n2)cc1` [Example 25, 4-[2-(4-trifluoromethylphenyl)-4-oxazolyl]benzoic acid] showed a melting point of 294 to 295 °C.

`Br.COC(=O)c1ccc(-c2nc(-c3cccnc3)cs2)cc1` [Example 34, methyl 4-[4-(3-pyridyl)-2-thiazolyl]benzoate hydrobromide] had a melting point of 241 to 242 °C.

In turn, `O=C(O)c1ccc(-c2nc(-c3ccccn3)cs2)cc1` [Example 61, 4-[4-(2-pyridyl)-2-thiazolyl]benzoic acid] showed a melting point of more than 300 °C.

Consider `O=C(O)c1ccc(-c2nc(-c3cccnc3)cs2)cc1` [Example 57, 4-[4-(3-pyridyl)-2-thiazolyl]benzoic acid], for which the melting point is 303 to 304 °C.

`CCOC(=O)c1ccc(-c2csc(-c3ccc(Cl)cc3)n2)cc1` [Example 103, ethyl 4-[2-(4-chlorophenyl)-4-thiazolyl)benzoate] displayed a melting point of 105 to 106 °C.

As for `CCOC(=O)c1cccc(-c2nc(-c3cc(C)oc3C)cs2)c1` [Example 49, ethyl 3-[4-(2,5-dimethyl-3-furyl)-2-thiazolyl]benzoate], the melting point lay within 100 to 101 °C.

The compound `COC(=O)c1ccc(-c2nc(-c3cccc(OC(F)(F)F)c3)cs2)cc1` [Example 40, methyl 4-[4-(3-trifluoromethoxyphenyl)-2-thiazolyl]benzoate] gave a melting point of 132 to 134 °C.

In turn, `CCOC(=O)c1cccc(-c2nc(-c3ccc(OCC)cc3)cs2)c1` [Example 82, ethyl 3-[4-(4-ethoxyphenyl)-2-thiazolyl]benzoate] returned a melting point of 108 to 110 °C.

In turn, `CCOC(=O)c1ccc(-c2coc(-c3cccc(C(F)(F)F)c3)n2)cc1` [Example 20, ethyl 4-[2-(3-trifluoromethylphenyl)-4-oxazolyl]benzoate] showed a melting point of 132 to 133 °C.

`Cc1cc(-c2csc(-c3ccc(C(=O)O)cc3)n2)c(C)s1` [Example 93, 4-[4-(2,5-dimethyl-3-thienyl)-2-thiazolyl]benzoic acid] showed a melting point of 239 to 240 °C.

`CCOC(=O)c1ccc(-c2coc(-c3ccc(C(F)(F)F)cc3)n2)cc1` [Example 19, ethyl 4-[2-(4-trifluoromethylphenyl)-4-oxazolyl]benzoate] came in with a melting point of 168 to 170 °C.

In turn, `O=C(O)c1ccc(-c2nc(-c3c(F)c(F)c(F)c(F)c3F)cs2)cc1` [Example 65, 4-[4-(2,3,4,5,6-pentafluorophenyl)-2-thiazolyl]benzoic acid] displayed a melting point of 273 to 274 °C.

For `COC(=O)c1ccc(-c2nc(-c3ccc(OC(F)F)cc3)cs2)cc1` [Example 28, methyl 4-[4-(4-difluoromethoxyphenyl)-2-thiazolyl]benzoate], the melting point fell in the range of 146 to 148 °C.

`COC(=O)c1cccc(-c2nc(-c3ccc(F)cc3F)cs2)c1` [Example 46, methyl 3-[4-(2,4-difluorophenyl)-2-thiazolyl]benzoate] gave a melting point of 121 to 122 °C.

Compound `COC(=O)c1ccc(-c2nc(-c3ccc(C(F)(F)F)cc3)co2)cc1` [Example 2, methyl 4-[4-(4-trifluoromethylphenyl)-2-oxazolyl]benzoate] gave a melting point of 182 to 183 °C.

`COC(=O)c1ccc(-c2nc(-c3c(F)c(F)c(F)c(F)c3F)cs2)cc1` [Example 42, methyl 4-[4-(2,3,4,5,6-pentafluorophenyl)-2-thiazolyl]benzoate] gave a melting point of 141 to 142 °C.

For `COC(=O)c1ccc(-c2nc(-c3ccc(C)cc3)cs2)cc1` [Example 33, methyl 4-[4-(4-methylphenyl)-2-thiazolyl]benzoate], the melting point is 185 to 187 °C.

The compound `COC(=O)c1ccc(-c2nc(-c3ccc(Cl)cc3)cs2)cc1` [Example 29, methyl 4-[4-(4-chlorophenyl)-2-thiazolyl]benzoate] showed a melting point of 186 to 187 °C.

Compound `O=C(O)c1ccc(-c2nc(-c3ccc(Br)cc3)cs2)cc1` [Example 89, 4-[4-(4-bromophenyl)-2-thiazolyl]benzoic acid] registered a melting point of more than 300 °C.

On to `O=C(O)c1cccc(-c2nc(-c3ccc(F)cc3F)cs2)c1` [Example 69, 3-[4-(2,4-difluorophenyl)-2-thiazolyl]benzoic acid], for which the melting point fell in the range of 255 to 256 °C.

As for `Br.CCOC(=O)c1ccc(-c2csc(-c3ccncc3)n2)cc1` [Example 36, ethyl 4-[2-(4-pyridyl)-4-thiazolyl]benzoate hydrobromide], the melting point was in the range of 248 to 250 °C.

As a reminder, the melting point is the temperature, or range, at which the solid turns liquid.
